Source: patent publication US20200354426A1 (MEDIMMUNE LIMITED, priority 2016, published 2020)
Numbered stars: 1 amine (or outer) side, 2 acyl side, 3 side chain; on linkers, the order of the positions; unused ones are H or OH. Side chains are listed from the residue outwards. Peptide text beside a SMILES is read from it. * marks the point of attachment. γGlu = O=C(O)[C@H](CCC(=O)[*:2])N[*:1]; Palmitoyl = CCCCCCCCCCCCCCCC(=O)*; Ahx = NCCCCCC(=O)O; βAla = NCCC(=O)O

Experiments:
Test in all cases: cAMP activity assay in assay medium (assay 1)
Assay type in all cases: cell-based
Human GIPr = target: T1, Human GIPr (Homo sapiens, UniProt P48546); settings: assay medium; Table 4; read-out: hGIPR EC50
T1 construct: expressed in transfected cells
T1 sequence (P48546 22-466): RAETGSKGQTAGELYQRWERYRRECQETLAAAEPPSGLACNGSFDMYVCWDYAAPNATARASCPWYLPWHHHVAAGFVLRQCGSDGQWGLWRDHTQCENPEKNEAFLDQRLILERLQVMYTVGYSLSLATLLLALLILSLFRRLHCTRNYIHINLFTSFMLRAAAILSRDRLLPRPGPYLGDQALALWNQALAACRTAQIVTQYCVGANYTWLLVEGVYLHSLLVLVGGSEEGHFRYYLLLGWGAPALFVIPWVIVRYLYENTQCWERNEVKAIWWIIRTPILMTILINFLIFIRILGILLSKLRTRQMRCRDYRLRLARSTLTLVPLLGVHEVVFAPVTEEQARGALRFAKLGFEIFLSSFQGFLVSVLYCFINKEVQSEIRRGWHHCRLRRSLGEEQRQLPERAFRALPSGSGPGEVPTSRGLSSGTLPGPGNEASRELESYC
Text: (§1) Biological Activity of Peptides in Cell-Based cAMP Activity Assay (Assay 1):
(§2) All sample dilutions were made in duplicate.

Human GlucR = target: T2, Human GlucR (Homo sapiens, UniProt P47871); settings: assay medium; Table 4; read-out: hGlucR EC50
T2 construct: expressed in transfected cells
T2 sequence (P47871 26-477): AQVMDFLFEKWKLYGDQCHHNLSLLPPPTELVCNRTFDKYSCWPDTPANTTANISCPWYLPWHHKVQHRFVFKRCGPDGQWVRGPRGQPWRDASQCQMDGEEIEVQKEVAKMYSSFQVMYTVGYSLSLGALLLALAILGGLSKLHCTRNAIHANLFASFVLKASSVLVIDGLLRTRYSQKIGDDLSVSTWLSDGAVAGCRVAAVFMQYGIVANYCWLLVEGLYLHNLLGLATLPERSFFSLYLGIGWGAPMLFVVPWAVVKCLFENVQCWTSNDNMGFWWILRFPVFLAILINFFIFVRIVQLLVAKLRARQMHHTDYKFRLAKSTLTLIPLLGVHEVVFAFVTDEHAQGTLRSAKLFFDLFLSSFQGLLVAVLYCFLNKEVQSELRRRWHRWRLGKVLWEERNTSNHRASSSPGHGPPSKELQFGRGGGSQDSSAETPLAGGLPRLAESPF
Text: as §1, §2

Human GLP1R = Human GLP1R (Homo sapiens, UniProt P43220); design: expressed in transfected cells; settings: assay medium; Table 4; read-out: hGLP1R EC50
Chain of Human GLP1R (P43220 24-463): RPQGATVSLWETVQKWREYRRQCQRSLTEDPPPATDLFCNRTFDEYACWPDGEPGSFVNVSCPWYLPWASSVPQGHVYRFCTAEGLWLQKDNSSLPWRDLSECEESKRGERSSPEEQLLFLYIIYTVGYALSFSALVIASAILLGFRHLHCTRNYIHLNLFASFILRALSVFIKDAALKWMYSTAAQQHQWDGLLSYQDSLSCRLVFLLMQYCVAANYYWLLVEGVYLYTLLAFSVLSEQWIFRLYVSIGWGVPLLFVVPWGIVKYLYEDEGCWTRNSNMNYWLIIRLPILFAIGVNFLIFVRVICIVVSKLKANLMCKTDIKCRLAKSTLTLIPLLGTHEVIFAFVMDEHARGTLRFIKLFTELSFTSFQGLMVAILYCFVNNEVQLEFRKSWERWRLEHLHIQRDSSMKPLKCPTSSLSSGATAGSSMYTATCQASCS
Text: as §1, §2

Row | Structure (SMILES) | EC50 (Human GIPr) [pM] | EC50 (Human GlucR) [pM] | EC50 (Human GLP1R) [pM]
1 | CCCCCCCCCCCCCCCC(=O)N[C@@H](CCC(=O)NCCCC[C@H](NC(=O)[C@H](Cc1ccc(O)cc1)NC(=O)[C@H](CCCCN)NC(=O)[C@H](CO)NC(=O)[C@H](Cc1ccc(O)cc1)NC(=O)[C@H](CC(=O)O)NC(=O)[C@H](CO)NC(=O)[C@@H](NC(=O)[C@H](Cc1ccccc1)NC(=O)[C@@H](NC(=O)CNC(=O)[C@H](CCC(N)=O)NC(=O)[C@H](CO)NC(=O)[C@@H](N)Cc1c[nH]cn1)[C@@H](C)O)[C@@H](C)O)C(=O)N[C@@H](CC(=O)O)C(=O)N[C@@H](CO)C(=O)N[C@@H](CCCNC(=N)N)C(=O)N[C@@H](CCCNC(=N)N)C(=O)N[C@@H](C)C(=O)N[C@@H](CCCNC(=N)N)C(=O)N[C@@H](CC(=O)O)C(=O)N[C@@H](Cc1ccccc1)C(=O)N[C@H](C(=O)N[C@@H](CCC(=O)O)C(=O)N[C@@H](Cc1c[nH]c2ccccc12)C(=O)N[C@@H](CC(C)C)C(=O)N[C@@H](CCC(=O)O)C(=O)N[C@@H](C)C(=O)NCC(=O)NCC(N)=O)C(C)C)C(=O)O [g805] (H-HSQGTFTSDYSKYK([γGlu-Palmitoyl])DSRRARDFVEWLEAGG-NH2; N-terminus assumed) | 99700 | 1.44 | 22.8
2 | CCCCCCCCCCCCCCCC(=O)NCCCCCC(=O)NCCCC[C@H](NC(=O)[C@H](CCC(N)=O)NC(=O)[C@H](C)NC(=O)[C@H](C)NC(=O)[C@H](CCCNC(=N)N)NC(=O)[C@H](CO)NC(=O)[C@H](CC(=O)O)NC(=O)[C@H](CC(C)C)NC(=O)[C@H](Cc1ccc(O)cc1)NC(=O)[C@H](CCCCN)NC(=O)[C@H](CO)NC(=O)[C@H](Cc1ccc(O)cc1)NC(=O)[C@H](CC(=O)O)NC(=O)[C@H](CO)NC(=O)[C@@H](NC(=O)[C@H](Cc1ccccc1)NC(=O)[C@@H](NC(=O)CNC(=O)[C@H](CCC(N)=O)NC(=O)[C@H](CO)NC(=O)[C@@H](N)Cc1c[nH]cn1)[C@@H](C)O)[C@@H](C)O)C(=O)N[C@@H](Cc1ccccc1)C(=O)N[C@H](C(=O)N[C@@H](CCC(N)=O)C(=O)N[C@@H](Cc1c[nH]c2ccccc12)C(=O)N[C@@H](CC(C)C)C(=O)N[C@@H](CCC(=O)O)C(=O)N[C@@H](CCCNC(=N)N)C(=O)NCC(=O)NCC(N)=O)C(C)C [g806] (H-HSQGTFTSDYSKYLDSRAAQK([Ahx-Palmitoyl])FVQWLERGG-NH2; N-terminus assumed) | 105000 | 9.9 | 171
3 | CCCCCCCCCCCCCCCC(=O)N[C@@H](CCC(=O)NCCCC[C@H](NC(=O)[C@H](Cc1ccc(O)cc1)NC(=O)[C@H](CCCCN)NC(=O)[C@H](CO)NC(=O)[C@H](Cc1ccc(O)cc1)NC(=O)[C@H](CC(=O)O)NC(=O)[C@H](CO)NC(=O)[C@@H](NC(=O)[C@H](Cc1ccccc1)NC(=O)[C@@H](NC(=O)CNC(=O)[C@H](CCC(N)=O)NC(=O)[C@H](CO)NC(=O)[C@@H](N)Cc1c[nH]cn1)[C@@H](C)O)[C@@H](C)O)C(=O)N[C@@H](CC(=O)O)C(=O)N[C@@H](CO)C(=O)N[C@@H](CCC(=O)O)C(=O)N[C@@H](CCCNC(=N)N)C(=O)N[C@@H](C)C(=O)N[C@@H](CCC(N)=O)C(=O)N[C@@H](CC(=O)O)C(=O)N[C@@H](Cc1ccccc1)C(=O)N[C@H](C(=O)N[C@@H](CCC(N)=O)C(=O)N[C@@H](Cc1c[nH]c2ccccc12)C(=O)N[C@@H](CC(C)C)C(=O)N[C@@H](CCC(=O)O)C(=O)N[C@@H](C)C(=O)NCC(=O)NCC(N)=O)C(C)C)C(=O)O [g816] | 20000 | 1.1 | 31.6
4 | CCCCCCCCCCCCCCCC(=O)N[C@@H](CCC(=O)NCCCC[C@H](NC(=O)[C@H](Cc1ccc(O)cc1)NC(=O)[C@H](CCCCN)NC(=O)[C@H](CO)NC(=O)[C@H](Cc1ccc(O)cc1)NC(=O)[C@H](CC(=O)O)NC(=O)[C@H](CO)NC(=O)[C@@H](NC(=O)[C@H](Cc1ccccc1)NC(=O)[C@@H](NC(=O)CNC(=O)[C@H](CCC(N)=O)NC(=O)[C@H](CO)NC(=O)[C@@H](N)Cc1c[nH]cn1)[C@@H](C)O)[C@@H](C)O)C(=O)N[C@@H](CC(=O)O)C(=O)N[C@@H](CO)C(=O)N[C@@H](CCCNC(=N)N)C(=O)N[C@@H](C)C(=O)N[C@@H](C)C(=O)N[C@@H](CCC(N)=O)C(=O)N[C@@H](CC(=O)O)C(=O)N[C@@H](Cc1ccccc1)C(=O)N[C@H](C(=O)N[C@@H](CCC(N)=O)C(=O)N[C@@H](Cc1c[nH]c2ccccc12)C(=O)N[C@@H](CC(C)C)C(=O)N[C@@H](CCC(=O)O)C(=O)N[C@@H](C)C(=O)NCC(=O)NCC(N)=O)C(C)C)C(=O)O [g817] (H-HSQGTFTSDYSKYK([γGlu-Palmitoyl])DSRAAQDFVQWLEAGG-NH2; N-terminus assumed) | 15200 | 1.68 | 25.1
5 | CCCCCCCCCCCCCCCC(=O)NCCCCCC(=O)NCCCC[C@H](NC(=O)[C@H](CO)NC(=O)[C@H](CC(=O)O)NC(=O)[C@H](CC(C)C)NC(=O)[C@H](Cc1ccc(O)cc1)NC(=O)[C@H](CCC(=O)O)NC(=O)[C@H](CO)NC(=O)[C@H](Cc1ccc(O)cc1)NC(=O)[C@H](CC(=O)O)NC(=O)[C@H](CO)NC(=O)[C@@H](NC(=O)[C@H](Cc1ccccc1)NC(=O)[C@@H](NC(=O)CNC(=O)[C@H](CCC(N)=O)NC(=O)[C@H](CO)NC(=O)[C@@H](N)Cc1c[nH]cn1)[C@@H](C)O)[C@@H](C)O)C(=O)N[C@@H](CCCNC(=N)N)C(=O)N[C@@H](C)C(=O)N[C@@H](C)C(=O)N[C@@H](CC(=O)O)C(=O)N[C@@H](Cc1ccccc1)C(=O)N[C@H](C(=O)N[C@@H](C)C(=O)N[C@@H](Cc1c[nH]c2ccccc12)C(=O)N[C@@H](CC(C)C)C(=O)N[C@@H](CCC(=O)O)C(=O)N[C@@H](CCCNC(=N)N)C(=O)NCC(=O)NCC(N)=O)C(C)C [g818] (H-HSQGTFTSDYSEYLDSK([Ahx-Palmitoyl])RAADFVAWLERGG-NH2; N-terminus assumed) | 94000 | 8.9 | 21
6 | CCCCCCCCCCCCCCCC(=O)NCCC(=O)NCCCC[C@H](NC(=O)[C@H](CO)NC(=O)[C@H](CC(=O)O)NC(=O)[C@H](CC(C)C)NC(=O)[C@H](Cc1ccc(O)cc1)NC(=O)[C@H](CCCCN)NC(=O)[C@H](CO)NC(=O)[C@H](Cc1ccc(O)cc1)NC(=O)[C@H](CC(=O)O)NC(=O)[C@H](CO)NC(=O)[C@@H](NC(=O)[C@H](Cc1ccccc1)NC(=O)[C@@H](NC(=O)CNC(=O)[C@H](CCC(N)=O)NC(=O)[C@H](CO)NC(=O)[C@@H](N)Cc1c[nH]cn1)[C@@H](C)O)[C@@H](C)O)C(=O)N[C@@H](CCCNC(=N)N)C(=O)N[C@@H](C)C(=O)N[C@@H](CCCNC(=N)N)C(=O)N[C@@H](CC(=O)O)C(=O)N[C@@H](Cc1ccccc1)C(=O)N[C@H](C(=O)N[C@@H](C)C(=O)N[C@@H](Cc1c[nH]c2ccccc12)C(=O)N[C@@H](CC(C)C)C(=O)N[C@@H](CCC(=O)O)C(=O)N[C@@H](C)C(=O)NCC(=O)NCC(N)=O)C(C)C [g819] (H-HSQGTFTSDYSKYLDSK([βAla-Palmitoyl])RARDFVAWLEAGG-NH2; N-terminus assumed) | 103000 | 2.34 | 18
7 | CCCCCCCCCCCCCCCC(=O)N[C@@H](CCC(=O)NCCCC[C@H](NC(=O)[C@H](CCCNC(=N)N)NC(=O)[C@H](CO)NC(=O)[C@H](Cc1ccc(O)cc1)NC(=O)[C@H](CC(=O)O)NC(=O)[C@H](CO)NC(=O)[C@@H](NC(=O)[C@H](Cc1ccccc1)NC(=O)[C@@H](NC(=O)CNC(=O)[C@H](CCC(N)=O)NC(=O)[C@H](CO)NC(=O)[C@@H](N)Cc1c[nH]cn1)[C@@H](C)O)[C@@H](C)O)C(=O)N[C@@H](CC(C)C)C(=O)N[C@@H](CC(=O)O)C(=O)N[C@@H](CO)C(=O)N[C@@H](CCC(=O)O)C(=O)N[C@@H](CCCNC(=N)N)C(=O)N[C@@H](C)C(=O)N[C@@H](CCCNC(=N)N)C(=O)N[C@@H](CC(=O)O)C(=O)N[C@@H](Cc1ccccc1)C(=O)N[C@H](C(=O)N[C@@H](C)C(=O)N[C@@H](Cc1c[nH]c2ccccc12)C(=O)N[C@@H](CC(C)C)C(=O)N[C@H](C(=O)N[C@@H](C)C(=O)NCC(=O)NCC(N)=O)C(C)C)C(C)C)C(=O)O [g820] (H-HSQGTFTSDYSRK([γGlu-Palmitoyl])LDSERARDFVAWLVAGG-NH2; N-terminus assumed) | 71100 | 11.7 | 33.9
8 | CCCCCCCCCCCCCCCC(=O)N[C@@H](CCC(=O)NCCCC[C@H](NC(=O)[C@H](CO)NC(=O)[C@H](CC(=O)O)NC(=O)[C@H](CC(C)C)NC(=O)[C@H](Cc1ccc(O)cc1)NC(=O)[C@H](CCCNC(=N)N)NC(=O)[C@H](CO)NC(=O)[C@H](Cc1ccc(O)cc1)NC(=O)[C@H](CC(=O)O)NC(=O)[C@H](CO)NC(=O)[C@@H](NC(=O)[C@H](Cc1ccccc1)NC(=O)[C@@H](NC(=O)CNC(=O)[C@H](CCC(N)=O)NC(=O)[C@H](CO)NC(=O)[C@@H](N)Cc1c[nH]cn1)[C@@H](C)O)[C@@H](C)O)C(=O)N[C@@H](CCCNC(=N)N)C(=O)N[C@@H](C)C(=O)N[C@@H](CCCNC(=N)N)C(=O)N[C@@H](CC(=O)O)C(=O)N[C@@H](Cc1ccccc1)C(=O)N[C@H](C(=O)N[C@@H](CCC(=O)O)C(=O)N[C@@H](Cc1c[nH]c2ccccc12)C(=O)N[C@@H](CC(C)C)C(=O)N[C@H](C(=O)N[C@@H](C)C(=O)NCC(=O)NCC(N)=O)C(C)C)C(C)C)C(=O)O [g823] (H-HSQGTFTSDYSRYLDSK([γGlu-Palmitoyl])RARDFVEWLVAGG-NH2; N-terminus assumed) | 84200 | 9.48 | 97.3
